Measurements from PubChem BioAssay AID1963843 (Molecular Pharmacology Branch, DTP, NCI, 2024).

System: 616215-338-R-J1-PDC complex spheroid viability
Assay: Anticancer human tumor 616215-338-R-J1-PDC patient-derived colon adenocarcinoma cell line growth inhibition [POLQ]
Conditions: for IC50: curve of first compound; for viability, T/C: stronger effect = lower value
Outline: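 Growth inhibition in 3D: complex spheroids (tumor PDC, HUVEC, MSC) treated with POLQ inhibitor combinations; where Cmax unknown, highest tested concentration 10 microM, except SN-38 at 1 microM.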
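Also: spheroids exposed to compounds for one week before readout.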
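For viability, T/C in this document: percent viability relative to DMSO vehicle wells taken as 100%.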

COc1cccc2c1C(=O)c1c(O)c3c(c(O)c1C2=O)CC(O)(C(=O)CO)CC3OC1CC(N)C(O)C(C)O1 (configuration not stated) + Cc1cccc(N(C)C(=O)C2C(O)CCN2c2nc(C)cc(C(F)(F)F)c2C#N)c1
IC50 (second compound 0.0316 µM): 1070 nM | IC50 (second compound 0.1 µM): 1000 nM | IC50 (second compound 0.316 µM): 785 nM | IC50 (second compound 1 µM): 688 nM | IC50 (second compound 3.16 µM): 665 nM | IC50 (second compound 10 µM): 823 nM | viability, T/C (second compound 0.0316 µM, first compound 0.0316 µM): 95.8% | viability, T/C (second compound 0.0316 µM, first compound 0.1 µM): 92.5% | viability, T/C (second compound 0.0316 µM, first compound 0.316 µM): 79.8% | viability, T/C (second compound 0.0316 µM, first compound 1 µM): 55.9% | viability, T/C (second compound 0.0316 µM, first compound 3.16 µM): 6.78% | viability, T/C (second compound 0.0316 µM, first compound 10 µM): 0.53% | viability, T/C (second compound 0.1 µM, first compound 0.0316 µM): 109% | viability, T/C (second compound 0.1 µM, first compound 0.1 µM): 92.1% | viability, T/C (second compound 0.1 µM, first compound 0.316 µM): 80% | viability, T/C (second compound 0.1 µM, first compound 1 µM): 57.5% | viability, T/C (second compound 0.1 µM, first compound 3.16 µM): 6.89% | viability, T/C (second compound 0.1 µM, first compound 10 µM): 0.26% | viability, T/C (second compound 0.316 µM, first compound 0.0316 µM): 106% | viability, T/C (second compound 0.316 µM, first compound 0.1 µM): 83.4% | viability, T/C (second compound 0.316 µM, first compound 0.316 µM): 69.2% | viability, T/C (second compound 0.316 µM, first compound 1 µM): 56.7% | viability, T/C (second compound 0.316 µM, first compound 3.16 µM): 3.48% | viability, T/C (second compound 0.316 µM, first compound 10 µM): 0.22% | viability, T/C (second compound 1 µM, first compound 0.0316 µM): 111% | viability, T/C (second compound 1 µM, first compound 0.1 µM): 85.8% | viability, T/C (second compound 1 µM, first compound 0.316 µM): 71.2% | viability, T/C (second compound 1 µM, first compound 1 µM): 48.3% | viability, T/C (second compound 1 µM, first compound 3.16 µM): 3.44% | viability, T/C (second compound 1 µM, first compound 10 µM): 0.22% | viability, T/C (second compound 3.16 µM, first compound 0.0316 µM): 96.6% | viability, T/C (second compound 3.16 µM, first compound 0.1 µM): 79.9% | viability, T/C (second compound 3.16 µM, first compound 0.316 µM): 65.5% | viability, T/C (second compound 3.16 µM, first compound 1 µM): 48.9% | viability, T/C (second compound 3.16 µM, first compound 3.16 µM): 1.58% | viability, T/C (second compound 3.16 µM, first compound 10 µM): 0.25% | viability, T/C (second compound 10 µM, first compound 0.0316 µM): 83.2% | viability, T/C (second compound 10 µM, first compound 0.1 µM): 82.6% | viability, T/C (second compound 10 µM, first compound 0.316 µM): 76.7% | viability, T/C (second compound 10 µM, first compound 1 µM): 44.7% | viability, T/C (second compound 10 µM, first compound 3.16 µM): 0.88% | viability, T/C (second compound 10 µM, first compound 10 µM): 0.31%
